Assay results from ChEMBL document CHEMBL4507303, “Data for DCP probe TP-004” (2021).

Tests used:
[1] = test system: Tyrosine-protein kinase ABL1 (Homo sapiens), P00519 [F317L]; conditions: Compound concentration 1000.0 nM
[2] = target: Serine/threonine-protein kinase BRSK2 (Homo sapiens) (UniProt Q8IWQ3); conditions: Compound concentration 1000.0 nM
[3] = target: Serine/threonine-protein kinase BRSK1 (Homo sapiens) (UniProt Q8TDC3); conditions: Compound concentration 1000.0 nM
[4] = target: Mitogen-activated protein kinase 12 (Homo sapiens) (UniProt P53778); conditions: Compound concentration 1000.0 nM
[5] = target: Serine/threonine-protein kinase MAK (Homo sapiens) (UniProt P20794); conditions: Compound concentration 1000.0 nM
[6] = test system: Receptor-type tyrosine-protein kinase FLT3 (Homo sapiens), P36888 [UNDEFINED MUTATION]; conditions: Compound concentration 1000.0 nM
[7] = target: Casein kinase I isoform gamma-1 (Homo sapiens) (UniProt Q9HCP0); conditions: Compound concentration 1000.0 nM
Sequence of Casein kinase I isoform gamma-1 (Homo sapiens) (Q9HCP0 whole entry, looked up, canonical isoform): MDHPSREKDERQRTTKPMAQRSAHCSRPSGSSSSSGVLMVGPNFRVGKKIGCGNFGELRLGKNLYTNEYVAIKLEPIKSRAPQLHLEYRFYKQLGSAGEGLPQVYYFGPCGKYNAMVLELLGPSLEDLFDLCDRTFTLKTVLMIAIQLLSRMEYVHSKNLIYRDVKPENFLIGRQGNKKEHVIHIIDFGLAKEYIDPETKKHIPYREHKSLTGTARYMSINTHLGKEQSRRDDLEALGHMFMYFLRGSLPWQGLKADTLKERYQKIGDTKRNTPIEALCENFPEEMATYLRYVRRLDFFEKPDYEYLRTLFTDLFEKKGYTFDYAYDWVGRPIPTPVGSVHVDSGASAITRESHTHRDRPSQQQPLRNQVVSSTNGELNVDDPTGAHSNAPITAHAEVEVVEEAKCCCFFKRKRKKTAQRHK

[8] = target: Epidermal growth factor receptor (Homo sapiens) (UniProt P00533); conditions: Compound concentration 1000.0 nM
[9] = target: Phosphatidylinositol 4-phosphate 5-kinase type-1 gamma (Homo sapiens) (UniProt O60331); conditions: Compound concentration 1000.0 nM
[10] = target: Tyrosine-protein kinase JAK2 (Homo sapiens) (UniProt O60674); conditions: Compound concentration 1000.0 nM
[11] = target: Ephrin type-A receptor 6 (Homo sapiens) (UniProt Q9UF33); conditions: Compound concentration 1000.0 nM
[12] = target: Serine/threonine-protein kinase 32C (Homo sapiens) (UniProt Q86UX6); conditions: Compound concentration 1000.0 nM
[13] = target: STE20/SPS1-related proline-alanine-rich protein kinase (Homo sapiens) (UniProt Q9UEW8); conditions: Compound concentration 1000.0 nM
[14] = test system: Tyrosine-protein kinase ABL1 (Homo sapiens), P00519 [F317I]; conditions: Compound concentration 1000.0 nM
Sequence of Tyrosine-protein kinase ABL1 (Homo sapiens), P00519 [F317I] (P00519 whole entry F317I, the tested form may be a part): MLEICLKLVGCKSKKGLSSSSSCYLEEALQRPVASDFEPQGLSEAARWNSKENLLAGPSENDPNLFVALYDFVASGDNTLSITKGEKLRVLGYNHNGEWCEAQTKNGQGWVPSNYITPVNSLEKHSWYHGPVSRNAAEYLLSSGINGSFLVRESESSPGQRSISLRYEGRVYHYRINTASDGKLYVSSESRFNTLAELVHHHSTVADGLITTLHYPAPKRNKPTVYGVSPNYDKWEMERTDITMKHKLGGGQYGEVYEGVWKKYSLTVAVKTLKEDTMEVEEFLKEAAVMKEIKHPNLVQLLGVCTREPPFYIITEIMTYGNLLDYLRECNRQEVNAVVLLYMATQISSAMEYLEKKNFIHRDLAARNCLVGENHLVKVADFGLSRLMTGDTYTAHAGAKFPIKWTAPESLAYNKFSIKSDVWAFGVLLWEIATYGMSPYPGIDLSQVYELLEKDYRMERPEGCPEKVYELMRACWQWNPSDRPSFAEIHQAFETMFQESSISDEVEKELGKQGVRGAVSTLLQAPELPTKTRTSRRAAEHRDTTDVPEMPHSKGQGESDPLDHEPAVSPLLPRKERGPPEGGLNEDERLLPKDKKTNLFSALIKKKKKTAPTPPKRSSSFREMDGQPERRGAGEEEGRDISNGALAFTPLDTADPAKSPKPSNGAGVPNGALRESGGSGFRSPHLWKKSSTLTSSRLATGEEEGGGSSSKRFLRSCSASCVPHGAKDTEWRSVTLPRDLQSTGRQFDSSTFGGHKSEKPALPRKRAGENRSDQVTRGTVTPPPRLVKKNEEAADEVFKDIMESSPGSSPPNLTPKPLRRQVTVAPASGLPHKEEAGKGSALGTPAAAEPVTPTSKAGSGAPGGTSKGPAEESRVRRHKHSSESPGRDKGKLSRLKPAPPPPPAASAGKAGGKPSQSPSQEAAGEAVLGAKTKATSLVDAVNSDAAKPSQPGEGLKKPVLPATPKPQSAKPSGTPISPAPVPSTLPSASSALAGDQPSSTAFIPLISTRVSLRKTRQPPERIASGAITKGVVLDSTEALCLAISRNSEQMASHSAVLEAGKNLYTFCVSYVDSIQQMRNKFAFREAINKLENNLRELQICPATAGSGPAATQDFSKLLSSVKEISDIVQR

[15] = target: Phosphatidylinositol 4-phosphate 3-kinase C2 domain-containing subunit beta (Homo sapiens) (UniProt O00750); conditions: Compound concentration 1000.0 nM
[16] = target: Alpha-2B adrenergic receptor (Homo sapiens) (UniProt P18089); conditions: Compound concentration 10.0 uM
[17] = target: Atypical kinase COQ8B, mitochondrial (Homo sapiens) (UniProt Q96D53); conditions: Compound concentration 1000.0 nM
[18] = target: Myosin light chain kinase family member 4 (Homo sapiens) (UniProt Q86YV6); conditions: Compound concentration 1000.0 nM
[19] = target: Aurora kinase C (Homo sapiens) (UniProt Q9UQB9); conditions: Compound concentration 1000.0 nM
Sequence of Aurora kinase C (Homo sapiens) (Q9UQB9 whole entry): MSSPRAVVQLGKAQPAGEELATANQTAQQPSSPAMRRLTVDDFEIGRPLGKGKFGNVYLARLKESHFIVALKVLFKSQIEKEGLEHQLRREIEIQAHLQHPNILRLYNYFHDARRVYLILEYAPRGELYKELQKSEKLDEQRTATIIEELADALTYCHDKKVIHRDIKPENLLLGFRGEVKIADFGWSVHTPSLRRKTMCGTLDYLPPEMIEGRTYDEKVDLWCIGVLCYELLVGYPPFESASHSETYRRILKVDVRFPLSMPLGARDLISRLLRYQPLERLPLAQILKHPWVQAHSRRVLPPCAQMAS

[20] = target: Calcium/calmodulin-dependent protein kinase type IV (Homo sapiens) (UniProt Q16566); conditions: Compound concentration 1000.0 nM
[21] = target: Cyclin-dependent kinase 19 (Homo sapiens) (UniProt Q9BWU1); conditions: Compound concentration 1000.0 nM
Sequence of Cyclin-dependent kinase 19 (Homo sapiens) (Q9BWU1 whole entry): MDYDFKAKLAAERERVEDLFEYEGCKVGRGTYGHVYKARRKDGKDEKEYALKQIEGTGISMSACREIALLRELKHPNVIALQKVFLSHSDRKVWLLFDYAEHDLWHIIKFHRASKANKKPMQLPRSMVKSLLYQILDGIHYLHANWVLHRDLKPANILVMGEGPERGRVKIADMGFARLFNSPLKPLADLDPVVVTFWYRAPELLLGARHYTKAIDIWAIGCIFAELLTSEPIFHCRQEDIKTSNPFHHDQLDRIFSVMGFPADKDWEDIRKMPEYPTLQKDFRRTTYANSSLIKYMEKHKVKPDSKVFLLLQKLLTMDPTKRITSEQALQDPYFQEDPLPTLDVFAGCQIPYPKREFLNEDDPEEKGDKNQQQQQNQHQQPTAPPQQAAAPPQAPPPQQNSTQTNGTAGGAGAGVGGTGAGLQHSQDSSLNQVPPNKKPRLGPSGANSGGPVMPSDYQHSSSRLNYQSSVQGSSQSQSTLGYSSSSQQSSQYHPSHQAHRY

[22] = target: cAMP-dependent protein kinase catalytic subunit alpha (Homo sapiens) (UniProt P17612); conditions: Compound concentration 1000.0 nM
[23] = target: Protein kinase C iota type (Homo sapiens) (UniProt P41743); conditions: Compound concentration 1000.0 nM
[24] = target: Protein kinase C eta type (Homo sapiens) (UniProt P24723); conditions: Compound concentration 1000.0 nM
Sequence of Protein kinase C eta type (Homo sapiens) (P24723 whole entry): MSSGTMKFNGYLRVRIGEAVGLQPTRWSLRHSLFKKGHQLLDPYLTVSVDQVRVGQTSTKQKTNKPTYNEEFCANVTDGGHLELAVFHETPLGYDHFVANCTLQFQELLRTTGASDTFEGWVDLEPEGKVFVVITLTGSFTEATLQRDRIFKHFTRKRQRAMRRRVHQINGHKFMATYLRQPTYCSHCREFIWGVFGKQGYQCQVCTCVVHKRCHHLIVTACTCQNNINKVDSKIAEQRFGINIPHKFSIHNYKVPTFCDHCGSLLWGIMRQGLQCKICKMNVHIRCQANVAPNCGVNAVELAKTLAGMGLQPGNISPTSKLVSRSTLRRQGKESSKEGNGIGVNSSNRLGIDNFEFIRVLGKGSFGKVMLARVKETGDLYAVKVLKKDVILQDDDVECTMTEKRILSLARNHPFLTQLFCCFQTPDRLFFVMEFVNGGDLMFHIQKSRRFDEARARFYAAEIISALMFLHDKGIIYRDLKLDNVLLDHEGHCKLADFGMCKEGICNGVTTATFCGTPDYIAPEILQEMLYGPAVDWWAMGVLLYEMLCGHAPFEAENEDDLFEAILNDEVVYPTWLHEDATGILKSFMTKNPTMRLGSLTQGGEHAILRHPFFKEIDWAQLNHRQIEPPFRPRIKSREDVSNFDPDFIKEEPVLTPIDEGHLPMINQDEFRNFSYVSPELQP

[25] = target: Citron Rho-interacting kinase (Homo sapiens) (UniProt O14578); conditions: Compound concentration 1000.0 nM
[26] = target: Cyclin-dependent kinase 2 (Homo sapiens) (UniProt P24941); conditions: Compound concentration 1000.0 nM
[27] = target: Myosin light chain kinase 2, skeletal/cardiac muscle (Homo sapiens) (UniProt Q9H1R3); conditions: Compound concentration 1000.0 nM
[28] = target: TGF-beta receptor type-1 (Homo sapiens) (UniProt P36897); conditions: Compound concentration 1000.0 nM
[29] = target: Serine/threonine-protein kinase VRK2 (Homo sapiens) (UniProt Q86Y07); conditions: Compound concentration 1000.0 nM
[30] = target: Serine/threonine-protein kinase NIM1 (Homo sapiens) (UniProt Q8IY84); conditions: Compound concentration 1000.0 nM
[31] = target: Tyrosine-protein kinase JAK3 (Homo sapiens) (UniProt P52333); conditions: Compound concentration 1000.0 nM
[32] = target: Myotonin-protein kinase (Homo sapiens) (UniProt Q09013); conditions: Compound concentration 1000.0 nM
[33] = target: Leucine-rich repeat serine/threonine-protein kinase 2 (Homo sapiens) (UniProt Q5S007); conditions: Compound concentration 1000.0 nM
[34] = target: G protein-coupled receptor kinase 4 (Homo sapiens) (UniProt P32298); conditions: Compound concentration 1000.0 nM
[35] = target: Platelet-derived growth factor receptor alpha (Homo sapiens) (UniProt P16234); conditions: Compound concentration 1000.0 nM
[36] = target: Mu-type opioid receptor (Homo sapiens) (UniProt P35372); conditions: Compound concentration 10.0 uM
[37] = target: Muscarinic acetylcholine receptor M4 (Homo sapiens) (UniProt P08173); conditions: Compound concentration 10.0 uM
[38] = target: Ribosomal protein S6 kinase alpha-6 (Homo sapiens) (UniProt Q9UK32); conditions: Compound concentration 1000.0 nM
Sequence of Ribosomal protein S6 kinase alpha-6 (Homo sapiens) (Q9UK32 whole entry, canonical isoform): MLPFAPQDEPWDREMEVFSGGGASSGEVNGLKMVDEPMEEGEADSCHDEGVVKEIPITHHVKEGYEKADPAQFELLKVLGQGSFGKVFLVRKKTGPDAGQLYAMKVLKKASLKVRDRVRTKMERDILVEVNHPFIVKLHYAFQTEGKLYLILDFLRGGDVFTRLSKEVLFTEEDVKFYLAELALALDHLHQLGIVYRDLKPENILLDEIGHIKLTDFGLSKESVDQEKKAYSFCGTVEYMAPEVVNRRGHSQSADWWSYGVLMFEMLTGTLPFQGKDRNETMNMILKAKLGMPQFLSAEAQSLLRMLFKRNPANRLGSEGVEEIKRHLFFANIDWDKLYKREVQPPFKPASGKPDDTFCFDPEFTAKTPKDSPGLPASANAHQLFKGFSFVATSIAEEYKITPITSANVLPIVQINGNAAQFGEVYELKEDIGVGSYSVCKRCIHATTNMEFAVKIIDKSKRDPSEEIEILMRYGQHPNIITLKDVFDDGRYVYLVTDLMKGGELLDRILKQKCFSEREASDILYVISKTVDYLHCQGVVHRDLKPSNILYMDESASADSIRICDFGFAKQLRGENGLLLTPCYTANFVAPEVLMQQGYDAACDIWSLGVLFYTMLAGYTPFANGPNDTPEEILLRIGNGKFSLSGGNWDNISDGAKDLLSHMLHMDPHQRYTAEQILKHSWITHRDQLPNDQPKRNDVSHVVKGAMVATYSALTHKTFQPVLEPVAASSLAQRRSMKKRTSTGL

[39] = target: Casein kinase I isoform alpha (Homo sapiens) (UniProt P48729); conditions: Compound concentration 1000.0 nM
[40] = target: Casein kinase I isoform gamma-2 (Homo sapiens) (UniProt P78368); conditions: Compound concentration 1000.0 nM
Sequence of Casein kinase I isoform gamma-2 (Homo sapiens) (P78368 whole entry, looked up, canonical isoform): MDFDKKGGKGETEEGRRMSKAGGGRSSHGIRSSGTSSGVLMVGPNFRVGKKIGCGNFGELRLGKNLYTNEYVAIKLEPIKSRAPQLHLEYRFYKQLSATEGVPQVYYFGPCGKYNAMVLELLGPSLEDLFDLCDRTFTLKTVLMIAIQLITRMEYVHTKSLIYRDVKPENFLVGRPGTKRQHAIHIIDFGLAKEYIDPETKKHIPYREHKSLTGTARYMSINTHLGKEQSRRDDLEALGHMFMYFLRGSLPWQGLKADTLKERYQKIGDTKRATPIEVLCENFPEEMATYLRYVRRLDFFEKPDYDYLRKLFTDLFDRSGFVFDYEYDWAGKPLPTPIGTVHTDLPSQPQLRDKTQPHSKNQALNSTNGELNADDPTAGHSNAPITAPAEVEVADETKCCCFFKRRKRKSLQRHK

[41] = target: cAMP-dependent protein kinase catalytic subunit PRKX (Homo sapiens) (UniProt P51817); conditions: Compound concentration 1000.0 nM
[42] = target: Serine/threonine-protein kinase Chk2 (Homo sapiens) (UniProt O96017); conditions: Compound concentration 1000.0 nM
[43] = target: SRSF protein kinase 2 (Homo sapiens) (UniProt P78362); conditions: Compound concentration 1000.0 nM
[44] = test system: Epidermal growth factor receptor (Homo sapiens), P00533 [G719C]; conditions: Compound concentration 1000.0 nM
[45] = target: Hormonally up-regulated neu tumor-associated kinase (Homo sapiens) (UniProt P57058); conditions: Compound concentration 1000.0 nM

Sequence of Serine/threonine-protein kinase BRSK2 (Homo sapiens) (Q8IWQ3 whole entry): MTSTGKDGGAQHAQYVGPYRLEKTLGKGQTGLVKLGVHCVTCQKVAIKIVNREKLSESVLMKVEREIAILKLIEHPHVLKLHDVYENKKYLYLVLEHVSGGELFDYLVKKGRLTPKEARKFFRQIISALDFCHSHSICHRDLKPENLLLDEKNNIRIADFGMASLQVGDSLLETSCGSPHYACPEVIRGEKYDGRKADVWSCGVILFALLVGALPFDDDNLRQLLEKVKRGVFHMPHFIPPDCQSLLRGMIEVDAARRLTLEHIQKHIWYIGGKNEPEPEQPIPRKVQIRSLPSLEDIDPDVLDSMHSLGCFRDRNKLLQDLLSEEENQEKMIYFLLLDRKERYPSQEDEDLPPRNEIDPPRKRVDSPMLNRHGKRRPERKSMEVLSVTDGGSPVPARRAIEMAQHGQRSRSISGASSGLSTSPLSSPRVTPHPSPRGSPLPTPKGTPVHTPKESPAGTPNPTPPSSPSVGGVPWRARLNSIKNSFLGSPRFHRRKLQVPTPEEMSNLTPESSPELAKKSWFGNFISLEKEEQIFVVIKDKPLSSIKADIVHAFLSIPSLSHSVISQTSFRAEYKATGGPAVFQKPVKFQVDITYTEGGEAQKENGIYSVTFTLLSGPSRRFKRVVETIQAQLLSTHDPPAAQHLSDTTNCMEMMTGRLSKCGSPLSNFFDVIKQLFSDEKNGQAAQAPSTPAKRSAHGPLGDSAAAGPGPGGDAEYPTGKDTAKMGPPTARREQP

Cc1nc(N2CC[C@@H](O)C2)ncc1-c1cc(C(F)(F)F)cc2[nH]ncc12 [TP-004]
inactive: residual activity [1] 58% | residual activity [2] 90% | residual activity [3] 100% | residual activity [4] 100% | residual activity [5] 100% | residual activity [6] 69% | residual activity [7] 78% | residual activity [8] 71% | residual activity [9] 100% | residual activity [10] 61% | residual activity [11] 100% | residual activity [12] 86% | residual activity [13] 99% | residual activity [14] 87% | residual activity [15] 100% | inhibition [16] 12.5% | residual activity [17] 100% | residual activity [18] 100% | residual activity [19] 100% | residual activity [20] 100% | residual activity [21] 100% | residual activity [22] 83% | residual activity [23] 100% | residual activity [24] 94% | residual activity [25] 82% | residual activity [26] 94% | residual activity [27] 100% | residual activity [28] 100% | residual activity [29] 86% | residual activity [30] 71% | residual activity [31] 77% | residual activity [32] 80% | residual activity [33] 58% | residual activity [34] 86% | residual activity [35] 76% | inhibition [36] 7.79% | inhibition [37] 5.7% | residual activity [38] 51% | residual activity [39] 96% | residual activity [40] 100% | residual activity [41] 97% | residual activity [42] 96% | residual activity [43] 100% | residual activity [44] 100% | residual activity [45] 100%
